One experiment relates to human DHODH. Details: method as in PMID 15044733, PMID 9313772. Conditions: His-to-Ala mutation of the π-stacking partner; cited from earlier work.
For another experiment, the target named is T1, mouse complex I (Mus musculus, UniProt P03888+Q91WD5+Q9DC70).
T1 construct: from tissue; host or cells: mouse (C57BL/6) heart mitochondria
Nature of the experiment: NADH:decylubiquinone oxidoreduction by purified mouse complex I. In kind it is biochemical. Here is the method: (§1) All catalytic activity assays were conducted at 32°C in 96-well plates using a Molecular Devices Spectramax 384 plus plate reader. Catalysis was initiated by addition of 200 μM NADH and monitored at 340 and 380 nm (ε340–380 = 4.81 mM^−1 cm^−1). Linear rates were measured for all assays, inhibitors were added from dimethyl sulfoxide stock solutions as required, and inhibitor-insensitive rates (using either 1 μM piericidin A or 1.4 μM IACS-2858) were subtracted from each measured rate. Membrane samples were prepared as described previously ([17], [20], [59], [60]), diluted to 20 μg ml^−1 in 10 mM tris-SO4 (pH 7.5) and 250 mM sucrose, and supplemented with 3 μM horse heart cytochrome c (except for P. denitrificans, for which the activity is unaffected by the addition). Mouse, bovine, and yeast (Y. lipolytica) complex I were purified as described previously ([17], [20], [59]); diluted to 0.5 nM in 20 mM tris-HCl (pH 7.5), 0.15% asolectin, and 0.15% CHAPS; and assayed using either 200 μM dQ or 200 μM ubiquinone-1 (Sigma-Aldrich). Complex I was purified from P. denitrificans strain Pd1222 ([61]) and provided by O. D. Jarman (MRC Mitochondrial Biology Unit, University of Cambridge); it was assayed likewise but in 10 mM MES-HCl (pH 6.5), 25 mM NaCl, and 2 mM CaCl2. Bovine SMPs were prepared as described previously ([61]) and diluted to 20 μg ml^−1 in 10 mM tris-SO4 (pH 7.5) and 250 mM sucrose for FET and RET assays. The RET assay was initiated using 1 mM NAD^+, 1 mM ATP, 10 mM succinate, 1 mM cyanide, and 2 mM MgSO4, in the absence of NADH. AOX from Trypanosoma brucei brucei was prepared as described previously ([23]). Complex I proteoliposomes were assayed using 10 mM Mops-KOH (pH 7.5), 50 mM KCl, and AOX (10 μg ml^−1).

Experiment [1] concerns the target T2, complex I in bovine SMPs (Bos taurus, UniProt P03887+P17694+P42026).
T2 construct: Complex I from bovine heart were prepared; from tissue; host or cells: bovine heart mitochondria
Description: Reverse electron transport (succinate oxidation-driven NAD+ reduction) in bovine heart submitochondrial particles. In kind it is biochemical. The procedure: as §1

For experiment [2], the target named is T2, complex I in bovine SMPs. Description: Forward electron transport (NADH oxidation) in bovine heart submitochondrial particles. In kind it is biochemical. Conditions: NADH oxidation rate, ± SE. Here is the method: as §1, with “Bovine SMPs were prepared as described previously ([61]) and diluted to 20 μg ml^−1 in 10 mM tris-SO4 (pH 7.5) and 250 mM sucrose for FET and RET assays. The RET assay was initiated using 1 mM NAD^+, 1 mM ATP, 10 mM succinate, 1 mM cyanide, and 2 mM MgSO4, in the absence of NADH. AOX from Trypanosoma brucei brucei was prepared as described previously ([23]). Complex I proteoliposomes were assayed using 10 mM Mops-KOH (pH 7.5), 50 mM KCl, and AOX (10 μg ml^−1).” left out

The target of experiment [3] is T3, complex I in mitochondrial membranes (Bos taurus, UniProt P03887+P17694+P42026).
T3 construct: Complex I from bovine heart were prepared; from tissue; host or cells: bovine heart mitochondria
Nature of the experiment: NADH oxidation in bovine mitochondrial membranes. Conditions: B. taurus membranes 20 μg ml−1; ± SE. Format: biochemical. Here is the method: as §1, with “Bovine SMPs were prepared as described previously ([61]) and diluted to 20 μg ml^−1 in 10 mM tris-SO4 (pH 7.5) and 250 mM sucrose for FET and RET assays. The RET assay was initiated using 1 mM NAD^+, 1 mM ATP, 10 mM succinate, 1 mM cyanide, and 2 mM MgSO4, in the absence of NADH. AOX from Trypanosoma brucei brucei was prepared as described previously ([23]). Complex I proteoliposomes were assayed using 10 mM Mops-KOH (pH 7.5), 50 mM KCl, and AOX (10 μg ml^−1).” left out

For experiment [4], the target named is T4, complex I in mitochondrial membranes (Mus musculus, UniProt P03888+Q91WD5+Q9DC70).
T4 construct: from tissue; host or cells: mouse (C57BL/6) heart mitochondria
Description: NADH oxidation in mouse mitochondrial membranes. Conditions: M. musculus membranes 20 μg ml−1; ± SE. Format: biochemical. The procedure: as §1, with “Bovine SMPs were prepared as described previously ([61]) and diluted to 20 μg ml^−1 in 10 mM tris-SO4 (pH 7.5) and 250 mM sucrose for FET and RET assays. The RET assay was initiated using 1 mM NAD^+, 1 mM ATP, 10 mM succinate, 1 mM cyanide, and 2 mM MgSO4, in the absence of NADH. AOX from Trypanosoma brucei brucei was prepared as described previously ([23]). Complex I proteoliposomes were assayed using 10 mM Mops-KOH (pH 7.5), 50 mM KCl, and AOX (10 μg ml^−1).” left out

Experiment [5] deals with T5, yeast (Y. lipolytica) complex I (Yarrowia lipolytica, UniProt Q9B6E8+Q9UUT7+Q9UUU1).
T5 sequence (Q9B6E8 1-341): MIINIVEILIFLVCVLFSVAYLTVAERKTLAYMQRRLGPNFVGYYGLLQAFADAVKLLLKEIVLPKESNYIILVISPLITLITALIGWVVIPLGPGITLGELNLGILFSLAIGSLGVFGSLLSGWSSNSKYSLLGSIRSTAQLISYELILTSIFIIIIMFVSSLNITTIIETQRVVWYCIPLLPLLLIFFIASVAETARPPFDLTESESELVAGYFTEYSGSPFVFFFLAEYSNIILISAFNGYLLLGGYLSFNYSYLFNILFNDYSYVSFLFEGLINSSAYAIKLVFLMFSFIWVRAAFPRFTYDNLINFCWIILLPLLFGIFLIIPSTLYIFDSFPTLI
T5 sequence (Q9UUU1 22-466): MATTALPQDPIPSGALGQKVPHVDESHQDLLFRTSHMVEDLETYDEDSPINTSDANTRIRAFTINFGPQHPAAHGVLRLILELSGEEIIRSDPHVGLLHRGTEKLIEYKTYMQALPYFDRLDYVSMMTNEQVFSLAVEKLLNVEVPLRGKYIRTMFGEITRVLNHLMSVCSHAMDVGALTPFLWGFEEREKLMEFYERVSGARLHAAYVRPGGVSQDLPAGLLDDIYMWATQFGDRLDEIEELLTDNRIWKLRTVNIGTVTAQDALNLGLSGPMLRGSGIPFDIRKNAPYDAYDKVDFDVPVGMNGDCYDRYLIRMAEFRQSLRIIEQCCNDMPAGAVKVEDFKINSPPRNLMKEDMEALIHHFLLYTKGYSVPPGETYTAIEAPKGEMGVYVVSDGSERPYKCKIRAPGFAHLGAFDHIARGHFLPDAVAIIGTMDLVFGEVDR
T5 sequence (Q9UUT7 28-210): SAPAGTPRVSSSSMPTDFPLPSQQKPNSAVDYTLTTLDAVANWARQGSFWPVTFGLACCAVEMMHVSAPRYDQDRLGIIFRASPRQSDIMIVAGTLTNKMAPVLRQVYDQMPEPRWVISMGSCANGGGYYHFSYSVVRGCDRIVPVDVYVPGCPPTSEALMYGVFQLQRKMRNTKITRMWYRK
Nature of the experiment: NADH:decylubiquinone oxidoreduction by purified Y. lipolytica complex I. Format: biochemical. Here is the method: as §1, with “Bovine SMPs were prepared as described previously ([61]) and diluted to 20 μg ml^−1 in 10 mM tris-SO4 (pH 7.5) and 250 mM sucrose for FET and RET assays. The RET assay was initiated using 1 mM NAD^+, 1 mM ATP, 10 mM succinate, 1 mM cyanide, and 2 mM MgSO4, in the absence of NADH. AOX from Trypanosoma brucei brucei was prepared as described previously ([23]). Complex I proteoliposomes were assayed using 10 mM Mops-KOH (pH 7.5), 50 mM KCl, and AOX (10 μg ml^−1).” left out

Experiment [6] relates to human cell line models and representative cell lines from mammalian species. Details: method as in PMID 29892070. Conditions: mouse, monkey, dog and rat cell lines; cited from earlier work.
The next experiment deals with H292 cells. Details: method as in PMID 29892070. Conditions: Leu55 ND1 mutation to Phe in H292 cells; cited from earlier work.
The target in experiment [7] is T6, complex I in bacterial membranes (Paracoccus denitrificans, UniProt P29916+P29918+P29920).
T6 construct: Complex I was purified from P. denitrificans strain Pd1222; endogenous in cells; host or cells: P. denitrificans strain Pd1222
Nature of the experiment: NADH oxidation in P. denitrificans bacterial membranes. Conditions: P. denitrificans membranes 20 μg ml−1. Format: biochemical. The procedure: as §1, with “Bovine SMPs were prepared as described previously ([61]) and diluted to 20 μg ml^−1 in 10 mM tris-SO4 (pH 7.5) and 250 mM sucrose for FET and RET assays. The RET assay was initiated using 1 mM NAD^+, 1 mM ATP, 10 mM succinate, 1 mM cyanide, and 2 mM MgSO4, in the absence of NADH. AOX from Trypanosoma brucei brucei was prepared as described previously ([23]). Complex I proteoliposomes were assayed using 10 mM Mops-KOH (pH 7.5), 50 mM KCl, and AOX (10 μg ml^−1).” left out

For experiment [8], the target named is T7, P. denitrificans complex I (Paracoccus denitrificans, UniProt P29916+P29918+P29920).
T7 construct: Complex I was purified from P. denitrificans strain Pd1222; endogenous in cells; host or cells: P. denitrificans strain Pd1222
Description: NADH:decylubiquinone oxidoreduction by purified P. denitrificans complex I. Conditions: dQ, pH 6.5. In kind it is biochemical. The procedure: as §1, with “Bovine SMPs were prepared as described previously ([61]) and diluted to 20 μg ml^−1 in 10 mM tris-SO4 (pH 7.5) and 250 mM sucrose for FET and RET assays. The RET assay was initiated using 1 mM NAD^+, 1 mM ATP, 10 mM succinate, 1 mM cyanide, and 2 mM MgSO4, in the absence of NADH. AOX from Trypanosoma brucei brucei was prepared as described previously ([23]). Complex I proteoliposomes were assayed using 10 mM Mops-KOH (pH 7.5), 50 mM KCl, and AOX (10 μg ml^−1).” left out

In experiment [9] the target is T8, complex I in mitochondrial membranes (Yarrowia lipolytica, UniProt Q9B6E8+Q9UUT7+Q9UUU1).
T8 sequence (Q9B6E8 1-341): T5 sequence (Q9B6E8 1-341)
T8 sequence (Q9UUU1 22-466): T5 sequence (Q9UUU1 22-466)
T8 sequence (Q9UUT7 28-210): T5 sequence (Q9UUT7 28-210)
Nature of the experiment: NADH oxidation in Y. lipolytica mitochondrial membranes. Format: biochemical. The procedure:
as §1, with “Bovine SMPs were prepared as described previously ([61]) and diluted to 20 μg ml^−1 in 10 mM tris-SO4 (pH 7.5) and 250 mM sucrose for FET and RET assays. The RET assay was initiated using 1 mM NAD^+, 1 mM ATP, 10 mM succinate, 1 mM cyanide, and 2 mM MgSO4, in the absence of NADH. AOX from Trypanosoma brucei brucei was prepared as described previously ([23]). Complex I proteoliposomes were assayed using 10 mM Mops-KOH (pH 7.5), 50 mM KCl, and AOX (10 μg ml^−1).” left out

Another experiment deals with T9, bovine complex I (Bos taurus, UniProt P03887+P17694+P42026).
T9 construct: Complex I from bovine heart were prepared; from tissue; host or cells: bovine heart mitochondria
Description: NADH:decylubiquinone oxidoreduction by purified bovine complex I. In kind it is biochemical. Conditions: purified B. taurus complex I, dQ; ± SE. Here is the method:
as §1, with “Bovine SMPs were prepared as described previously ([61]) and diluted to 20 μg ml^−1 in 10 mM tris-SO4 (pH 7.5) and 250 mM sucrose for FET and RET assays. The RET assay was initiated using 1 mM NAD^+, 1 mM ATP, 10 mM succinate, 1 mM cyanide, and 2 mM MgSO4, in the absence of NADH. AOX from Trypanosoma brucei brucei was prepared as described previously ([23]). Complex I proteoliposomes were assayed using 10 mM Mops-KOH (pH 7.5), 50 mM KCl, and AOX (10 μg ml^−1).” left out

In general, IC50 refers to the concentration needed to halve the response being measured.

Take `Cc1c(-c2ccc(-c3ccccc3F)cc2)nc2ccc(F)cc2c1C(=O)O` [brequinar]: the reduction of sensitivity result with human DHODH is “more than 100 fold”.
On to `Cc1nc(-c2nc(-c3ccc(OC(F)(F)F)cc3)no2)nn1Cc1cccc(N2CCC(S(C)(=O)=O)CC2)c1` [IACS-010759], for which, at mouse complex I, the “higher IC50 value than IACS-2858” value is recorded as 17 fold. In addition, the IC50 on mouse complex I (purified mouse complex I ~0.5 nM, 200 μM dQ, 200 μM NADH, 32°C, Hill slope constrained to −1, ± SE) worked out at 0.0479 µM; on complex I in bovine SMPs [1] (bovine SMPs, succinate oxidation-driven NAD+ reduction rate, ± SE), 0.0123 ± 0.0006 µM; against complex I in bovine SMPs [2], 0.325 ± 0.025 µM; in experiment [3], 0.113 ± 0.004 µM; in experiment [4] it was 0.0069 ± 0.0004 µM; in experiment [5] it was 6.3 ± 0.8 µM. Further, the IC50 in experiment [7] was roughly 1600 µM; in [8], roughly 22000 µM; in [9], roughly 170 µM; against bovine complex I it was 0.739 ± 0.065 µM. Moreover, the “inhibition of RET favoured over FET” value at complex I in bovine SMPs [1] (bovine heart SMPs, RET versus FET) is “more than 25 fold”. Moreover, the “variation in IC50 across cell lines” value in experiment [6] is on record as “up to 230 fold”. Moreover, the loss of sensitivity result in the experiment with H292 cells is listed as “up to 70 fold”.

(Values after PMC8121435, “Cork-in-bottle mechanism of inhibitor binding to mammalian complex I” (Science Advances, 2021).)
